Results taken from patent US9834514B2, “Antibiotic sensitivity-restoring and photosensitive agents” (New Mexico Tech Research Foundation, priority 2015, dated 2017).
≈ marks a conversion by molar mass, not a printed value.

Legend:
MRSA [1] = assay: Resensitization to antibiotics (log reduction, TABLE 29); assay type: cell-based, S. aureus
Experimental: (§1) In a 96-well microtiter plate, two-fold dilutions were made of each drug (starting with 100 μM) in 100 μL of a cell suspension in TSB. The resulting samples were incubated overnight at 37° C. on a rotary shaking incubator at 100 rpm. The samples were then visually inspected for turbidity. A 20% well volume of MTT reagent (5 mg/mL) was subsequently added, and the samples were incubated for about 20 minutes.

drug-resistant bacteria = assay: Summary of synergistic activities with antibiotic families (TABLE 45); assay type: cell-based; settings: for Synergy with Oxacillin (β-lactama): *indicated ampicillin, dicloxicillin and Penicillin G
From the text: TABLE 45 summarizes the synergistic activities of the seven classes of clinically used antibiotics and compounds of the invention against a variety of different drug-resistant bacteria.

[2] = tested on: A. baumannii (ATCC 15151); assay: MIC against A. baumannii; assay type: cell-based; settings: Acinetobacter baumannii, ATCC15151
Experimental: TABLE 28 details the individual MIC values of compounds 1, 7, 8, 9, 10, 11, PMB, PME, and light against A. baumannii.
(§2) The MICs of PME and compounds 8-11 were determined against A. baumannii (ATCC 15151). […] After incubating the cells with PME, a compound (5 μM) was added, and the samples were further incubated at 37° C. At specific time points, samples were taken and diluted ten-fold in media. Ten microliters of each dilution was then drip-streaked onto an agar plate and incubated overnight at 37° C. Colony counts were then performed, and the CFU/mL were calculated.

[3] = tested on: Klebsiella pneumoniae (CRE, ATCC BAA-1705); assay: Cell killing of CRE with compounds in presence or absence of PMB (CFU/mL); assay type: cell-based; settings: for PMB + Comp: PMB @ 0.2 μg/mL + Comp @ 20 µM; for Comp @ 20 µM: compound alone
Experimental: Klebsiella pneumoniae (CRE, ATCC BAA-1705) was grown in TSB overnight at 37° C. and diluted to about 5×10^5 CFU/mL using a McFarland Latex Turbidity standard (0.5). One mL of the cell suspension was transferred to a glass culture test tube. PMB was added to the cell suspension resulting in a final concentration of 200 μg/mL of PMB. The cell suspension was incubated at 37° C. on a rotary shaking incubator at 150 rpm for 4 hours. Compounds 1, 7, 8, 9, 10, and 11 were added to the cell suspension, resulting in a concentration of 20 μM for each of the compounds. The cell suspensions containing the compounds were incubated at 37° C. on a rotary shaking incubator at 150 rpm for 4 hours. Each sample was diluted tenfold to a 10^−5 dilution. Ten 10 microliters of each dilution from each sample was dripped onto a TSA plate and allowed to streak down the plate. The agar plates were incubated at 37° C. for 18-24 hours. Colony counts were performed and CFU/mL values were calculated.
The MICs of PMB and compounds 7-11 were determined against Klebsiella pneumoniae (CRE, ATCC BAA-1705). […] After the incubation with PMB, each of the compounds was added at a concentration of 20 μM, and the samples were incubated for an additional 18 hours. A sample was taken and diluted ten-fold in media. Ten microliters of each dilution was then drip-streaked onto an agar plate and incubated overnight at 37° C. Colony counts were then performed and the concentrations of cells (CFU/mL) were calculated.

CRE = assay: Resensitization to antibiotics (log reduction, TABLE 29); assay type: cell-based; settings: compound 20 μM
Experimental: as §1

S. aureus (ATCC 29213) = assay: MIC against drug sensitive S. aureus; assay type: cell-based; settings: Staphylococcus aureus, ATCC29213; ATCC 29213; read-out: S. aureus MIC
MRSA [4] = assay: Resensitization to antibiotics (log reduction, TABLE 29); assay type: cell-based, S. aureus; remark: listed apart in the source
WI38 cells = assay: Toxicity (IC50) on WI38 cells; assay type: cell-based; settings: Homo sapiens, WI-38; normal lung fibroblast WI38 cells
Experimental: The toxicities of the compounds of the invention were determined for human cancerous cervical epithelium HeLa and normal lung fibroblast WI38 cells. The toxicities of EPIs INF-55 and INF-55Cl were quantified as controls. […] TABLE 2 compares the toxicity of compounds 7-11 on HeLa cells and normal WI38 cells.

A. baumannii = assay: Resensitization to antibiotics (log reduction, TABLE 29); assay type: cell-based; settings: compound 5 μM; PME (0.2 μg/mL)
P. aeruginosa = assay: Cell killing with compounds and PME at fixed concentrations, with and without white light; assay type: cell-based; settings: 20 μM compound and 0.1 μg/mL PME
Experimental: FIG. 26 is an example of the treatment of P. aeruginosa with compound 1 and PME at fixed concentrations.
P. aeruginosa cells were also treated with white light upon being incubated with compound 1 for different durations of time. In a 12×75 mm borosilicate glass culture tube, 1 mL of cell suspension was added. PME was added to the cells, and the samples were mixed using a vortex mixer. The resulting samples were incubated for 1.5 hours at 37° C. on a rotary shaking incubator at 100 rpm. Compound 1 was then added, and the samples were incubated for 30 minutes at 37° C. on a rotary shaking incubator at 100 rpm. The samples were then irradiated with white light using a Lumacare™ LC-122 for 2 minutes (irradiation λ1) and incubated overnight at 37° C. The samples were irradiated again with white light using a Lumacare™ LC-122 for 2 minutes (irradiation λ2). Ten-fold dilutions were made of each sample, and 10 μL of each dilution was drip-streaked onto an agar plate. The samples were incubated overnight at 37° C., and colony counts were performed to calculate CFU/mL.
FIG. 55 is an illustrative example of the treatment of P. aeruginosa with compound 1, PME, co-treatment with compound 1 and PME, and co-treatment with compound 1, PME, and light (λ1 and λ2) at fixed concentrations.

[5] = tested on: A. baumannii (ATCC 15151); assay: Time course of colony counts with compounds and PME or PMB; assay type: cell-based; settings: 0.2 μg/mL of PME, compound 5 μM; FIGS. 50, 52
Experimental: as §2

Compound | Synergy with Polymyxin B (Polypeptides) (drug-resistant bacteria; A. baumannii ATCC 15151) | Synergy with Polymyxin E (Polypeptides) (drug-resistant bacteria; A. baumannii ATCC 15151) | Synergy with Polymyxin B (Polypeptides) (drug-resistant bacteria; CRE ATCC 1705) | Synergy with Polymyxin E (Polypeptides) (drug-resistant bacteria; CRE ATCC 1705) | Synergy with Polymyxin B (Polypeptides) (drug-resistant bacteria; CRE ATCC 2340) | Synergy with Polymyxin E (Polypeptides) (drug-resistant bacteria; CRE ATCC 2340) | Synergy with Polymyxin B (Polypeptides) (drug-resistant bacteria; CRE ATCC 2341) | Synergy with Polymyxin E (Polypeptides) (drug-resistant bacteria; CRE ATCC 2341) | Synergy with Polymyxin B (Polypeptides) (drug-resistant bacteria; CRE ATCC 2342) | Synergy with Polymyxin E (Polypeptides) (drug-resistant bacteria; CRE ATCC 2342) | Synergy with Norfioxacin (Fluoroquinolones) (drug-resistant bacteria; MRSA ATCC BAA-44) | Synergy with Oxacillin (β-lactama) (drug-resistant bacteria; MRSA ATCC BAA-44) | Synergy with Polymyxin B (Polypeptides) (drug-resistant bacteria; P. aeruginosa ATCC 27853) | Synergy with Polymyxin E (Polypeptides) (drug-resistant bacteria; P. aeruginosa ATCC 27853) | Synergy with Norfioxacin (Fluoroquinolones) (drug-resistant bacteria; VRE ATCC 51299) | Synergy with Tetracycline (Tetracyclines) (drug-resistant bacteria; VRE ATCC 51299) | Synergy with Vancomycin (Glycopeptides) (drug-resistant bacteria; VRE ATCC 51299) | MIC [2] | PMB + Comp [3] | Comp @ 20 µM [3] | also measured
Clc1ccc(/N=N/c2c[nH]c3ccccc23)cc1 [Compound 9] | Synergy | Synergy | Synergy | Synergy | Synergy | Synergy | Synergy | Synergy | Synergy | Synergy | Synergy | Synergy* | Synergy | Synergy | Synergy | Synergy | Synergy | > 100 µM | None Detected | 6.4 × 10^8 CFU/mL | Log Reduction (MRSA [1]; compound 8 μM, Oxacillin ([…])): 2-3; Log Reduction (CRE; PMB (0.2 μg/mL)): 6; Log Reduction (CRE; PME (0.2 μg/mL)): 6; MIC (S. aureus (ATCC 29213)): 16 µM (≈ 4.09 µg/mL); Log Reduction (MRSA [4]; compound 8 μM, Norfloxacin (25 μg/mL)): 2-3; IC50 (WI38 cells): 61.9 µM; Log Reduction (A. baumannii): 8; Co-treatment with PME: log reduction in the CFU/mL compared to PME alone (P. aeruginosa): 2-log reduction; Co-treatment with PME: log reduction in the CFU/mL compared to PME alone (P. aeruginosa; listed as compound 9): ~2 log reduction; A. baumannii colony populations on treatment with compound and PME [5]: reduced to sterility
Clc1ccc(Oc2c(-c3ccc(Cl)cc3)[nH]c3ccccc23)cc1 [Compound 10] | Synergy | Synergy | Synergy | Synergy | Synergy | Synergy | Synergy | Synergy | Synergy | Synergy | Synergy | Synergy* | Synergy | Synergy | Synergy | Synergy | Synergy | > 100 µM | None Detected | 7.9 × 10^8 CFU/mL | Log Reduction (MRSA [1]; compound 1 μM, Oxacillin (100 μg/mL)): 4-5; Synergy with β-lactama (Oxacillin column; cell says dicloxicillin) (drug-resistant bacteria; VRE ATCC 51299, dicloxicillin): Synergy; Log Reduction (CRE; PME (0.2 μg/mL)): 6; MIC (S. aureus (ATCC 29213)): 32 to 64 µM (≈ 11.3 to 22.7 µg/mL); Log Reduction (MRSA [4]; compound 1 μM, Norfloxacin (15 μg/mL)): 5-6; IC50 (WI38 cells): 54.8 µM; Log Reduction (A. baumannii): 8; Co-treatment with PME: log reduction in the CFU/mL compared to PME alone (P. aeruginosa): 2-log reduction; Co-treatment with PME: log reduction in the CFU/mL compared to PME alone (P. aeruginosa; listed as compound 10): ~2 log reduction; A. baumannii colony populations on treatment with compound and PME [5]: reduced to sterility
